Measured values published in patent US7767712B2, “Storage-stable aqueous composition comprising a magnesium compound and L-carnitine” (Verla-Pharm Arzneimittelfabrik Apotheker H.J.v. Ehrlich …, priority 2006, dated 2010).

Assay: Solubility of L-carnitine at 20° C.
Format: physicochemical
Conditions: in 100 g of solution
Description: This applies, furthermore, without taking into account the amount of water which is required for dissolving magnesium aspartate hydrochloride.

C[N+](C)(C)CC(O)CC(=O)[O-] [L-carnitine, 3-hydroxy-4-(trimethylammonio)butyro-betaine]
amount of L-carnitine that can be dissolved in 100 g of an aqueous solution which contains 51% by weight magnesium aspartate hydrochloride: up to 150 g
